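Five concentrations, 48 hours, 96-well plates. The concentration for 50% growth inhibition is given as GI50. The concentration for full growth arrest is given as TGI.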
What was measured:
Experiment in all cases: inhibition of tumour cell growth, NCI panel, 48 h
786-0 renal = system: 786-0 renal
A498 renal = system: A498 renal
A549 NSCLC = system: A549 NSCLC
ACHN renal = system: ACHN renal
BT-549 breast = system: BT-549 breast
CCRF-CEM leukemia = system: CCRF-CEM leukemia
COLO 205 colon = system: COLO 205 colon
DU-145 prostate = system: DU-145 prostate
EKVX NSCLC = system: EKVX NSCLC
HCC-2998 colon = system: HCC-2998 colon
HCT-116 colon = system: HCT-116 colon
HCT-15 colon = system: HCT-15 colon
HL-60(TB) leukemia = system: HL-60(TB) leukemia
HOP-62 NSCLC = system: HOP-62 NSCLC
HOP-92 NSCLC = system: HOP-92 NSCLC
HS 578T breast = system: HS 578T breast
HT29 colon = system: HT29 colon
IGROV1 ovarian = system: IGROV1 ovarian
KM12 colon = system: KM12 colon
LOX IMVI melanoma = system: LOX IMVI melanoma
M14 melanoma = system: M14 melanoma
MCF7 breast = system: MCF7 breast
MDA-MB-231 breast = system: MDA-MB-231 breast
MDA-MB-435 = system: MDA-MB-435
MOLT-4 leukemia = system: MOLT-4 leukemia
NCI-H226 lung = system: NCI-H226 lung
NCI-H23 lung = system: NCI-H23 lung
NCI-H460 lung = system: NCI-H460 lung
NCI-H522 lung = system: NCI-H522 lung
NCI/ADR-RES ovarian = system: NCI/ADR-RES ovarian
OVCAR-3 ovarian = system: OVCAR-3 ovarian
OVCAR-4 ovarian = system: OVCAR-4 ovarian
OVCAR-5 ovarian = system: OVCAR-5 ovarian
OVCAR-8 ovarian = system: OVCAR-8 ovarian
PC-3 prostate = system: PC-3 prostate
RPMI-8226 leukemia = system: RPMI-8226 leukemia
RXF 393 renal = system: RXF 393 renal
SF-268 CNS = system: SF-268 CNS
SF-295 CNS = system: SF-295 CNS
SF-539 CNS = system: SF-539 CNS
SK-MEL-2 melanoma = system: SK-MEL-2 melanoma
SK-MEL-28 melanoma = system: SK-MEL-28 melanoma
SK-MEL-5 melanoma = system: SK-MEL-5 melanoma
SK-OV-3 ovarian = system: SK-OV-3 ovarian
SN12C renal = system: SN12C renal
SNB-19 CNS = system: SNB-19 CNS
SNB-75 CNS = system: SNB-75 CNS
SR leukemia = system: SR leukemia
SW-620 colon = system: SW-620 colon
T-47D breast = system: T-47D breast
TK-10 renal = system: TK-10 renal
U251 CNS = system: U251 CNS
UACC-257 melanoma = system: UACC-257 melanoma
UACC-62 melanoma = system: UACC-62 melanoma
UO-31 renal = system: UO-31 renal

In the case of `CCOC(=O)c1noc2c1CCc1c-2cn(Cc2ccc(OC)cc2)c1-c1cc(OC)c(OC)c(OC)c1`, the GI50 (786-0 renal) is reported as 3.65 µM, the TGI (786-0 renal) is reported as greater than 100 µM and the GI50 (A498 renal) is reported as 2.77 µM. It also gave a TGI (A498 renal) of 42 µM, a GI50 (A549 NSCLC) of 3.8 µM and a TGI (A549 NSCLC) greater than 100 µM. The GI50 (ACHN renal) was 3.51 µM, the TGI (ACHN renal) was greater than 100 µM and the GI50 (BT-549 breast) was 1.47 µM. For the same compound, the TGI (BT-549 breast) was 35.1 µM, the GI50 (CCRF-CEM leukemia) was 1.04 µM and the TGI (CCRF-CEM leukemia) was greater than 100 µM. The GI50 (COLO 205 colon) was 1.77 µM, the TGI (COLO 205 colon) was 7.82 µM and the GI50 (DU-145 prostate) was 2.32 µM. It also gave a TGI (DU-145 prostate) of 6.14 µM, a GI50 (EKVX NSCLC) of 3.92 µM and a TGI (EKVX NSCLC) greater than 100 µM. The GI50 (HCC-2998 colon) was 5.17 µM, the TGI (HCC-2998 colon) was greater than 100 µM and the GI50 (HCT-116 colon) was 0.399 µM. The TGI (HCT-116 colon) was greater than 100 µM, the GI50 (HCT-15 colon) was 0.499 µM and the TGI (HCT-15 colon) was greater than 100 µM. It also gave a GI50 (HL-60(TB) leukemia) of 0.452 µM, a TGI (HL-60(TB) leukemia) of 4.89 µM and a GI50 (HOP-62 NSCLC) of 2.53 µM. The TGI (HOP-62 NSCLC) was greater than 100 µM, the GI50 (HOP-92 NSCLC) was 2.72 µM and the TGI (HOP-92 NSCLC) was greater than 100 µM. The GI50 (HS 578T breast) was 2.99 µM, the TGI (HS 578T breast) was greater than 100 µM and the GI50 (HT29 colon) was 0.846 µM. The TGI (HT29 colon) was greater than 100 µM, the GI50 (IGROV1 ovarian) was 2.45 µM and the TGI (IGROV1 ovarian) was greater than 100 µM. The GI50 (KM12 colon) was 0.91 µM, the TGI (KM12 colon) was greater than 100 µM and the GI50 (LOX IMVI melanoma) was 0.646 µM. It also gave a TGI (LOX IMVI melanoma) greater than 100 µM, a GI50 (M14 melanoma) of 0.41 µM and a TGI (M14 melanoma) greater than 100 µM. For the same compound, the GI50 (MCF7 breast) was 0.348 µM, the TGI (MCF7 breast) was greater than 100 µM and the GI50 (MDA-MB-231 breast) was 2.7 µM. For the same compound, the TGI (MDA-MB-231 breast) was greater than 100 µM, the GI50 (MDA-MB-435) was 0.574 µM and the TGI (MDA-MB-435) was greater than 100 µM. For the same compound, the GI50 (MOLT-4 leukemia) was 2.7 µM, the TGI (MOLT-4 leukemia) was greater than 100 µM and the GI50 (NCI-H226 lung) was greater than 100 µM. It also gave a TGI (NCI-H226 lung) greater than 100 µM, a GI50 (NCI-H23 lung) of 3.04 µM and a TGI (NCI-H23 lung) greater than 100 µM. For the same compound, the GI50 (NCI-H460 lung) was 1 µM, the TGI (NCI-H460 lung) was greater than 100 µM and the GI50 (NCI-H522 lung) was 0.369 µM. The TGI (NCI-H522 lung) was greater than 100 µM, the GI50 (NCI/ADR-RES ovarian) was 3.52 µM and the TGI (NCI/ADR-RES ovarian) was greater than 100 µM. It also gave a GI50 (OVCAR-3 ovarian) of 0.37 µM, a TGI (OVCAR-3 ovarian) of 10.6 µM and a GI50 (OVCAR-4 ovarian) of 20.5 µM. For the same compound, the TGI (OVCAR-4 ovarian) was greater than 100 µM, the GI50 (OVCAR-5 ovarian) was 4.72 µM and the TGI (OVCAR-5 ovarian) was greater than 100 µM. The GI50 (OVCAR-8 ovarian) was 3.04 µM, the TGI (OVCAR-8 ovarian) was greater than 100 µM and the GI50 (PC-3 prostate) was 2.9 µM. It also gave a TGI (PC-3 prostate) greater than 100 µM, a GI50 (RPMI-8226 leukemia) of 2.85 µM and a TGI (RPMI-8226 leukemia) greater than 100 µM. For the same compound, the GI50 (RXF 393 renal) was 2.17 µM, the TGI (RXF 393 renal) was 45.6 µM and the GI50 (SF-268 CNS) was 8.07 µM. The TGI (SF-268 CNS) was greater than 100 µM, the GI50 (SF-295 CNS) was 3.02 µM and the TGI (SF-295 CNS) was greater than 100 µM. It also gave a GI50 (SF-539 CNS) of 1.84 µM, a TGI (SF-539 CNS) of 6.56 µM and a GI50 (SK-MEL-2 melanoma) of 4.29 µM. It also gave a TGI (SK-MEL-2 melanoma) greater than 100 µM, a GI50 (SK-MEL-28 melanoma) of 1.9 µM and a TGI (SK-MEL-28 melanoma) greater than 100 µM. The GI50 (SK-MEL-5 melanoma) was 0.493 µM, the TGI (SK-MEL-5 melanoma) was 66.7 µM and the GI50 (SK-OV-3 ovarian) was 5.23 µM. The TGI (SK-OV-3 ovarian) was greater than 100 µM, the GI50 (SN12C renal) was 3.92 µM and the TGI (SN12C renal) was greater than 100 µM. It also gave a GI50 (SNB-19 CNS) of 0.668 µM, a TGI (SNB-19 CNS) greater than 100 µM and a GI50 (SNB-75 CNS) of 3.65 µM. The TGI (SNB-75 CNS) was greater than 100 µM, the GI50 (SR leukemia) was 2.09 µM and the TGI (SR leukemia) was greater than 100 µM. For the same compound, the GI50 (SW-620 colon) was 0.497 µM, the TGI (SW-620 colon) was greater than 100 µM and the GI50 (T-47D breast) was greater than 100 µM. It also gave a TGI (T-47D breast) greater than 100 µM, a GI50 (TK-10 renal) greater than 100 µM and a TGI (TK-10 renal) greater than 100 µM. For the same compound, the GI50 (U251 CNS) was 0.542 µM, the TGI (U251 CNS) was greater than 100 µM and the GI50 (UACC-257 melanoma) was 85.8 µM. For the same compound, the TGI (UACC-257 melanoma) was greater than 100 µM, the GI50 (UACC-62 melanoma) was 2.74 µM and the TGI (UACC-62 melanoma) was greater than 100 µM. For the same compound, the GI50 (UO-31 renal) was 3.44 µM and the TGI (UO-31 renal) was greater than 100 µM.
